Assay [1] has as its target Voltage-gated inwardly rectifying potassium channel KCNH2 (Homo sapiens, UniProt Q12809). The note with it: Potency.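 Further: confirmatory quantitative high-throughput screen measuring inhibition of hERG channel activity.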
Assay [2] is described as follows: NIH-3T3 fibroblast cytotoxicity, dose response, cytotoxicity control, cell-based, fluorescence, Alamar Blue, secondary assay (AID 2327).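 Further: NIH-3T3 mouse fibroblasts cultured with fluconazole at 8 µg/mL.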 Format: functional.
The target in assay [3] is T1, Luciferin 4-monooxygenase (Photinus pyralis, UniProt P08659). As to the kind of experiment: Counter Screen for Luciferase-based Assay Positives. [Related pubchem assays: 620, 618, 411 ].
T1 sequence (P08659 whole entry): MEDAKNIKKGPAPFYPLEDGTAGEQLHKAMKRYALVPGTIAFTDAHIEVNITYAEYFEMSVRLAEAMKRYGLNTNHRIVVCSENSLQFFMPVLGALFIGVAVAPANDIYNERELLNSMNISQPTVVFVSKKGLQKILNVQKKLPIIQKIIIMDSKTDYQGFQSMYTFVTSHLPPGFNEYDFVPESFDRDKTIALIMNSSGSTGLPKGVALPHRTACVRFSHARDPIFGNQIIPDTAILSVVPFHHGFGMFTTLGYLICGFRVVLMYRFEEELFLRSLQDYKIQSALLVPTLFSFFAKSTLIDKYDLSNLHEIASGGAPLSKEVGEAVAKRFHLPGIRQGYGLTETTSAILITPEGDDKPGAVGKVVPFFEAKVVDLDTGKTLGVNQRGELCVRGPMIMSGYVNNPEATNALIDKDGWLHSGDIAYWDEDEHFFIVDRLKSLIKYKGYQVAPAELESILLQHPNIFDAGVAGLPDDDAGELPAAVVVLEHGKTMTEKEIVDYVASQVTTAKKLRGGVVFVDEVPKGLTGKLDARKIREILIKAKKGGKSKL
A short description of assay [4]: alpha-synuclein stem-loop luciferase translation blockers – H4 neuroglioma cells, luminescence, confirmation (AID 1988). Format: functional, cell-based.
Assay [5] is described as follows: fluconazole-exposed Candida albicans growth modulators – fluorescence, retest, confirmation (AID 2467). The format is functional, cell-based.
The subject of assay [6] is HT-1080. Put plainly: HT1080 cell viability loss – fluorescence readout (AID 620). Format: functional, cell-based. The following applies: Homo sapiens.
A short description of assay [7]: THP-1 cell cytotoxicity, dose response, cytotoxicity control for non-replicating M. tuberculosis project (AID 489025). The format is functional.
Assay [8] in a line: HepG2 cell cytotoxicity, dose response, cytotoxicity control for non-replicating M. tuberculosis project (AID 489018). The format is functional. The following applies: Mycobacterium tuberculosis.
Assay [9] in a line: Vero E6 cell cytotoxicity, dose response, cytotoxicity control for non-replicating M. tuberculosis project, secondary assay (AID 492998). The format is functional, VeroE6. The note with it: Vero C1008.
The nature of assay [10]: cells. Format: functional.
For assay [11], the target named is Dual specificity protein kinase CLK1 (Homo sapiens, UniProt P49759). Put plainly: inhibition of human CLK1 activity – biochemical, cherry-picked samples, selectivity assay for Dyrk1A inhibitor project, dose response (AID 588811).
Sequence of Dual specificity protein kinase CLK1 (P49759 whole entry): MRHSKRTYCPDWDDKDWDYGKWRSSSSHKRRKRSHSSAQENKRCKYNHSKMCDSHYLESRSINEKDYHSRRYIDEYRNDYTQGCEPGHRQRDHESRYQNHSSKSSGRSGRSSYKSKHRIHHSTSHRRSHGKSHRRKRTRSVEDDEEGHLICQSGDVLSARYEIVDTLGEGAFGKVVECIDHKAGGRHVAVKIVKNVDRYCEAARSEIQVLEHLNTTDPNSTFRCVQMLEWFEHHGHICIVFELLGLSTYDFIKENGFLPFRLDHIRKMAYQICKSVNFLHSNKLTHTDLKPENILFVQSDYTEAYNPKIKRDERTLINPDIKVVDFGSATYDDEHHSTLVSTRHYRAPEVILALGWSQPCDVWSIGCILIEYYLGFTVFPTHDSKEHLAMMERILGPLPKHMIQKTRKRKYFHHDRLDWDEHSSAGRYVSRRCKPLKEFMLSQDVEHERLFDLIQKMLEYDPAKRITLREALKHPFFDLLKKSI
For assay [12], the target named is Dual specificity tyrosine-phosphorylation-regulated kinase 1A (Rattus norvegicus, UniProt Q63470). Format: biochemical, Homo sapiens.
Assay [13] deals with T2, Oxysterols receptor LXR-beta (Homo sapiens, UniProt P55055).
T2 sequence (P55055 whole entry): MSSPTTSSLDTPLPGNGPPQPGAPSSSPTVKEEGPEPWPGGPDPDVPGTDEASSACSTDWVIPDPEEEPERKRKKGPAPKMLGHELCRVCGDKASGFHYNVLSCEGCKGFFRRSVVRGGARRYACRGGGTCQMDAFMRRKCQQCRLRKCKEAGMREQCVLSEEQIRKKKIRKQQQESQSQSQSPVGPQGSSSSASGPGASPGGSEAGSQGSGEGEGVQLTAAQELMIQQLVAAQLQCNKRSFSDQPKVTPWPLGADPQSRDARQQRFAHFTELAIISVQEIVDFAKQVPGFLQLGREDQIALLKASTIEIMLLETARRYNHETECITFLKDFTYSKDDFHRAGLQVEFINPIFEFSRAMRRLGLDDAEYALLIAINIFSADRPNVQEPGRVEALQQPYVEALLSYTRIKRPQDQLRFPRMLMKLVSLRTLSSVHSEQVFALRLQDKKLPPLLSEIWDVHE
Format: functional, cell-based.

Assay [14] is described as follows: cells.
The target in assay [15] is Glycogen synthase kinase-3 alpha (Homo sapiens, UniProt P49840). Put plainly: Inhibition of Human GSK-3 alpha Activity Measured in Biochemical System Using Microfluidics - 2063-06_Inhibitor_Dose_DryPowder_Activity. [Related pubchem assays (depositor defined):AID2709].
Sequence of Glycogen synthase kinase-3 alpha (P49840 whole entry): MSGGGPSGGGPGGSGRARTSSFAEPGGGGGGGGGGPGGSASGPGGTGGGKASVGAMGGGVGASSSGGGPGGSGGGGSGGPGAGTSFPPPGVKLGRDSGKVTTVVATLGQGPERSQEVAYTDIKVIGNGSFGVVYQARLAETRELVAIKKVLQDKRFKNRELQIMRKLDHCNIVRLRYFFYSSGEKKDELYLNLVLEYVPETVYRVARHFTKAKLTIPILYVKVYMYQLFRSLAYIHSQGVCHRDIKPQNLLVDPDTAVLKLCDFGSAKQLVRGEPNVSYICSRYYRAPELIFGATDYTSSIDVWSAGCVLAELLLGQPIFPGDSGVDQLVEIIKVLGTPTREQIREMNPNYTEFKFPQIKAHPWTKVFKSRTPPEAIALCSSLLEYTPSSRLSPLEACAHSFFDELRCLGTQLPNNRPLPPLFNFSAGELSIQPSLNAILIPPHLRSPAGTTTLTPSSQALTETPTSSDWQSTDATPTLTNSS
Assay [16] concerns the target Glycogen synthase kinase-3 beta (Homo sapiens, UniProt P49841). Put plainly: Inhibition of Human GSK-3 beta Activity Measured in Biochemical System Using Microfluidics - 2063-05_Inhibitor_Dose_DryPowder_Activity. [Related pubchem assays (depositor defined):AID2709].
The target in assay [17] is T3, E3 ubiquitin-protein ligase XIAP (Homo sapiens, UniProt P98170). As to the kind of experiment: Counter Screen using XIAP-Bir3 for Chemical Antagonists of Bir1/2 domains of IAP-family anti-apoptotic proteins. [Related pubchem assays (depositor defined):AID1018, AID1449, AID1514, AID1638, AID1749, AID1750, AID488957, AID488963].
T3 sequence (P98170 whole entry): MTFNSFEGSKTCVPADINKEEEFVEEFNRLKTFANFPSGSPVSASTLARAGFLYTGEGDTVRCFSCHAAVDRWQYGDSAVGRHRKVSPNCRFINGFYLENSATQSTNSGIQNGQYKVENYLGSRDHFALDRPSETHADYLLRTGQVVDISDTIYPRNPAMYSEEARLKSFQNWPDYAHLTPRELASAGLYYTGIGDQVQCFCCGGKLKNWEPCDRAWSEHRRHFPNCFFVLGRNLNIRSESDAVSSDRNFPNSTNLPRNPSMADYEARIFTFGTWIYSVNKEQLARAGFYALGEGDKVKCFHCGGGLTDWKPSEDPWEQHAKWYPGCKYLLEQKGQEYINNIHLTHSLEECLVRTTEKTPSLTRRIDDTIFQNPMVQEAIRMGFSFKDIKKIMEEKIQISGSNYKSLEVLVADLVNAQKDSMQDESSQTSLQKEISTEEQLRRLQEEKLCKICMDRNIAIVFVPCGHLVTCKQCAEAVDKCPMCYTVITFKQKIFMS
Assay [18] addresses T3, E3 ubiquitin-protein ligase XIAP. As to the kind of experiment: small molecules displacing peptide from XIAP – biochemical, IAP family, fluorescence polarization (AID 1018). Format: functional.
Assay [19] concerns the target Troponin, cardiac muscle (Homo sapiens, UniProt P19429+P45379+P63316). As to the kind of experiment: Fluorescence-based biochemical high throughput dose response assay for activators of the calcium sensitivity of cardiac Regulated Thin Filaments (RTF). [Related pubchem assays (depositor defined):AID493008, AID493018, AID504382, AID504383]. The format is protein-complex assay.

Assay [20] deals with CHO. As to the kind of experiment: CHO cell viability loss, potency – luminescence, cytotoxicity control for TLR9-MyD88 binding inhibitor project, dose response (AID 588339).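 Further: CHO cells stably coexpressing TLR9 and MyD88 fusions from primary screen; compound exposure lasted 48 hours before viability readout.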 The format is functional, cell-based, hamster. The following applies: Cricetulus griseus.
Assay [21] concerns the target T4, Short transient receptor potential channel 4 (Mus musculus, UniProt Q9QUQ5).
T4 sequence (Q9QUQ5 whole entry): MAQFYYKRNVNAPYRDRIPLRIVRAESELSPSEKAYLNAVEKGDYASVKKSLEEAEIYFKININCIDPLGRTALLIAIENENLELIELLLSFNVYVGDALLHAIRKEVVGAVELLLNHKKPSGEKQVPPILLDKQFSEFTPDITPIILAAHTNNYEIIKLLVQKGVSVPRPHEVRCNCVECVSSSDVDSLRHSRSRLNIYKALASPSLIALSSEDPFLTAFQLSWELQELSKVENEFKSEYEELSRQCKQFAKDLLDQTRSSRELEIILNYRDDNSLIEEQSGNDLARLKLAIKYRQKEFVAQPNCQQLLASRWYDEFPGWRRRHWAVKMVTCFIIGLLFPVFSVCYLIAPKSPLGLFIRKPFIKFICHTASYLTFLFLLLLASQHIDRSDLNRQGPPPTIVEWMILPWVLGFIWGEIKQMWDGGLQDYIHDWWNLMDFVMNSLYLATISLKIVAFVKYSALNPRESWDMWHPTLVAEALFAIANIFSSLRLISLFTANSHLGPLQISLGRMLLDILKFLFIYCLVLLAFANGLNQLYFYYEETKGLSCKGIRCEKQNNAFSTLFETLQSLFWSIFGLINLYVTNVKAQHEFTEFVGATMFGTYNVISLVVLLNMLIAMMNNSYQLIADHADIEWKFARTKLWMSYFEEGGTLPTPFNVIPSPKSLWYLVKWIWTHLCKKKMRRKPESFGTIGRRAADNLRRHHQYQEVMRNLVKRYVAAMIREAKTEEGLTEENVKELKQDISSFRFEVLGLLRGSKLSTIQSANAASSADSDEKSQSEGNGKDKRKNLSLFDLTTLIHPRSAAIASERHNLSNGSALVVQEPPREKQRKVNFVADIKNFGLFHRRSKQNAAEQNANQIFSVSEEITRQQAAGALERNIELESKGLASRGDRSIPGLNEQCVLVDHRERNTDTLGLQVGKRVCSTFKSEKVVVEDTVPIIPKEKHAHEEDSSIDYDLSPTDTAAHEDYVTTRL
Put plainly: SAR Analysis for the identification of selective inhibits of the transient receptor potential cation channel C4 (TRPC4): Automated Electrophysiology. [Related pubchem assays (depositor defined):AID2256]. Format: functional.

Assay [22] concerns the target T4, Short transient receptor potential channel 4. As to the kind of experiment: potency of mouse TRPC4 calcium flux blockers – cell-based, HEK293 TRPC4/mu-opioid, DAMGO stimulus, Fluo-4, dose response (AID 492994). Format: functional.
Assay [23] concerns Candida albicans. Put plainly: Candida growth inhibition combined with fluconazole – CaCi-2 strain, Alamar Blue, dry powder, set 3, dose response (AID 488907). The format is functional, organism-based.
Assay [24] deals with T5, Streptokinase A (Streptococcus pyogenes serotype M1, UniProt P10520).
T5 sequence (P10520 whole entry): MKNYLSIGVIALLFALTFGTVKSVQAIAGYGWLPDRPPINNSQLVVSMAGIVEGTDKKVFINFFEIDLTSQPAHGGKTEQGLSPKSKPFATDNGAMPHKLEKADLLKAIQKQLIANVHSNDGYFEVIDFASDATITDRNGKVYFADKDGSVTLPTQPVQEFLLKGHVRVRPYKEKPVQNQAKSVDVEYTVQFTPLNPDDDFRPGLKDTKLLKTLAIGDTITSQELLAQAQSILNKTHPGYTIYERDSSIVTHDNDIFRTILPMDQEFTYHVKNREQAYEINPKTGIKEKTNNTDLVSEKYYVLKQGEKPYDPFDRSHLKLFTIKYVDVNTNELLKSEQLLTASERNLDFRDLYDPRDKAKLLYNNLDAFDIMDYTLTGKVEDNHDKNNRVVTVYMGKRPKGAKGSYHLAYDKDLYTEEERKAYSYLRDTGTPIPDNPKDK
As to the kind of experiment: viability-normalized secreted streptokinase activity reduction – plasminogen activation absorbance, OD405, dose response (AID 1914).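 Further: secreted streptokinase activity via plasminogen activation per viability signal from cell pellet.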 Format: functional, Streptococcus pyogenes M1 GAS.

Assay [25] addresses T1, Luciferin 4-monooxygenase. Put plainly: inhibition of purified Photinus pyralis luciferase – biochemical, luminescence, dose response (AID 1891).
The nature of assay [26]: Luminescence Cell-Based Dose Confirmation HTS to Identify Inhibitors of Platelet Dense Granule Release. [Related pubchem assays: 1663 (Primary HTS), 1678 (Summary of Project)]. The format is functional.
In assay [27] the test system is Streptococcus. Put plainly: GAS UMAA2166 growth inhibition – luminescence, BacTiterGlo, counter-screen for streptokinase expression inhibitor project, dose response (AID 1915).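 Further: potency for reduction of bacterial viability or growth.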 Format: functional, organism-based.
In assay [28] the target is Heat shock protein HSP 90-alpha (Homo sapiens, UniProt P07900). The format is functional, organism-based.
Assay [29] has as its target HSP90 (Plasmodium falciparum 3D7, UniProt Q8IL32). Format: functional, organism-based.
Assay [30] concerns the target T6, Endoribonuclease toxin MazF (Escherichia coli K-12, UniProt P0AE70). Put plainly: activation of MazEF endoribonuclease cleavage – biochemical, fluorescence, single-stranded RNA substrate, uHTS hits, dose response (AID 588481). Format: functional.
Assay [31] has as its target T6, Endoribonuclease toxin MazF. Put plainly: substrate-only fluorescence increase artefacts – biochemical, single-stranded RNase substrate, counter-screen for MazEF activator project, dose response (AID 588502). The format is functional.

Molecules are shown by their SMILES. The source made the active and inactive calls.

T6 sequence (P0AE70 whole entry): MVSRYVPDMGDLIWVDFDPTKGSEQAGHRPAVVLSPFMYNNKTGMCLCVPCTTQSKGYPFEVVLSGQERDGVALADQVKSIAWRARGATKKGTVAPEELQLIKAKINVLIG
Sequence of Glycogen synthase kinase-3 beta (P49841 whole entry): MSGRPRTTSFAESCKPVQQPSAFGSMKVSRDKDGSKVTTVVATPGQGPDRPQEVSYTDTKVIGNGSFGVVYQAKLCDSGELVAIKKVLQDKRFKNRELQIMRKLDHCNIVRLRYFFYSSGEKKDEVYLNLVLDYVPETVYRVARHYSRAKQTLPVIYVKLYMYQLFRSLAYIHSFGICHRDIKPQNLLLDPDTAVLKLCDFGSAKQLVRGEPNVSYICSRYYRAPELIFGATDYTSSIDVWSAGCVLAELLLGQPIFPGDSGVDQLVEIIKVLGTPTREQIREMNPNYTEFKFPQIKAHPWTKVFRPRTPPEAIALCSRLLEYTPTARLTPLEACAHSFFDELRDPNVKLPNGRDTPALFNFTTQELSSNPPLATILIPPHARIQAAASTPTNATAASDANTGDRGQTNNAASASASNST
Sequence of HSP90 (Q8IL32 whole entry): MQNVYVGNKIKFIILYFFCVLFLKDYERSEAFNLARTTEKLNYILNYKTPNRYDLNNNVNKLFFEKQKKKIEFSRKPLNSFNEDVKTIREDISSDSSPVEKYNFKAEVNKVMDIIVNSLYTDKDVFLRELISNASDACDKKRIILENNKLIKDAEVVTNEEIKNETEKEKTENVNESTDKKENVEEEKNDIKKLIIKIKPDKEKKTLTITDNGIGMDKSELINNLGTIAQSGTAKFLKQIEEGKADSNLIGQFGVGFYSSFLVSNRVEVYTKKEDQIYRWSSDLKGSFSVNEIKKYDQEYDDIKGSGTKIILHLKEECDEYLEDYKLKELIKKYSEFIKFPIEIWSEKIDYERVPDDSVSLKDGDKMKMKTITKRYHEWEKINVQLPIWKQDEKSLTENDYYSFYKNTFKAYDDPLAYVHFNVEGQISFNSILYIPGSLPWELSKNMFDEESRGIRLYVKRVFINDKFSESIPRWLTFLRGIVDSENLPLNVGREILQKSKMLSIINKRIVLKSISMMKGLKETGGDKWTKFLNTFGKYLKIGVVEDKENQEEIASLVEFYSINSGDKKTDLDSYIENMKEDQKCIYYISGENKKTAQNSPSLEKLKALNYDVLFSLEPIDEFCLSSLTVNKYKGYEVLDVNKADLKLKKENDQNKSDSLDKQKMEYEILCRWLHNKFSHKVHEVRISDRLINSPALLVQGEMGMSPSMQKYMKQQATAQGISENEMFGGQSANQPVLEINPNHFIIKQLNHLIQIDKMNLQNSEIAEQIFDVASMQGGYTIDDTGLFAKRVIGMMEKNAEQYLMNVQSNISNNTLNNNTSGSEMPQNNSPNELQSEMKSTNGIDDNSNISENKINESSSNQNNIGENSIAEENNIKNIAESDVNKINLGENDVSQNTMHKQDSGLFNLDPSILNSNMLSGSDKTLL
Sequence of Voltage-gated inwardly rectifying potassium channel KCNH2 (Q12809 whole entry): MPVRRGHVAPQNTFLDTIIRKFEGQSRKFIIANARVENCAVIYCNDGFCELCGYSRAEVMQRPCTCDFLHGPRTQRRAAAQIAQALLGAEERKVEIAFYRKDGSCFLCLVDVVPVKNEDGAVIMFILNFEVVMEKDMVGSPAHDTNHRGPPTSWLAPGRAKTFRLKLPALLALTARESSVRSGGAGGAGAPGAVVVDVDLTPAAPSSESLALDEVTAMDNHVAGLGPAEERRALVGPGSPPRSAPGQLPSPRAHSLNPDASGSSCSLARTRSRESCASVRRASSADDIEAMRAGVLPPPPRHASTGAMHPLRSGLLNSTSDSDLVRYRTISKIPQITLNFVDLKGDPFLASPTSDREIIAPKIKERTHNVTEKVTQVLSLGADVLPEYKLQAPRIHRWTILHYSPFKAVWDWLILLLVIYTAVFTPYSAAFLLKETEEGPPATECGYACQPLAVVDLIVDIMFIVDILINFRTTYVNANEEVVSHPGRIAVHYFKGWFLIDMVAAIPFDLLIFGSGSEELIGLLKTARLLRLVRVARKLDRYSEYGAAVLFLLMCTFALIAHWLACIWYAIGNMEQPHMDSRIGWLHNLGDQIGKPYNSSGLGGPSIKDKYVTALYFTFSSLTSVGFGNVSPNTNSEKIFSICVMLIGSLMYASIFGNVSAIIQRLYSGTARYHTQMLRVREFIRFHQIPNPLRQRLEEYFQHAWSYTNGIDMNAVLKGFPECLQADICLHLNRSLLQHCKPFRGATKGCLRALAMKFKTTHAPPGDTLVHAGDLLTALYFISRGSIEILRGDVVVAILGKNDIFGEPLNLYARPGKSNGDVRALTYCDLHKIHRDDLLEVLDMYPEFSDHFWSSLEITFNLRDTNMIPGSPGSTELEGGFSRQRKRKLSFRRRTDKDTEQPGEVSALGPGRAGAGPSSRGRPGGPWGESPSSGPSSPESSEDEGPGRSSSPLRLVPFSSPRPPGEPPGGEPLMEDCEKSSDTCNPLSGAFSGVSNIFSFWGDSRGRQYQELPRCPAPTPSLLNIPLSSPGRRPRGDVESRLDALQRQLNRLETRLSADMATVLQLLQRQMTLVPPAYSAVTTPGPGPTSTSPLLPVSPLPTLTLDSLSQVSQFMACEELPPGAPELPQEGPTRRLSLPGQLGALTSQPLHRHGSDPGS

For the molecule `O=C(OCCN1CCCCC1)c1c[nH]c2ccccc12`, the AC50 in [1] is 20 µM (inconclusive).
With `Cc1cc(NCCCn2ccnc2)n2ncc(-c3ccc(Cl)cc3)c2n1`, the EC50 in [2] is 21.8 µM (inconclusive); in [3], 2.18 µM (active); in assay [4], 9.97 µM (inconclusive); in assay [5], 3.66 µM (active); in assay [6], 35 µM (active); in assay [13], > 67.6 µM (inactive). In assay [14], the EC50 was > 67.6 µM (inactive). The CC50 was 22 µM (active) in assay [7], > 20 µM (active) in [8] and 7.48 µM (active) in assay [9]. Besides, the IC50 in assay [10] was 11.1 µM (active). For the same molecule, the AC50 is 5.5 µM (active) in assay [11] and 2.85 µM (active) in [12].
For the molecule `CCCn1nc(NC(=O)c2cccs2)c2cc3cc(OC)ccc3nc21`, the concentration at half-maximal activity (AC50) is 9.59 µM (active) in assay [15] and 0.445 µM (active) in [16].
In the case of `CCC1(C)OC(c2ccccc2)=C/C(=C/C=C2C(=O)NC(=O)NC2=O)O1` (configuration not stated), the IC50 is > 100 µM (inactive) in assay [17], > 100 µM (not active) in assay [18] and > 49.7 µM (inactive) in assay [20]. Also, the EC50 in assay [19] was 2.38 µM (active).
On to `Cc1cc(N2CCOCC2)nc2ccccc12`, for which the IC50 is 140 µM (inactive) in assay [21] and 39 µM (active) in assay [22].
On to `COCCC(=O)N1CCN(c2ccccn2)CC1`, for which, in assay [23], the AC50 was 5.95 µM (active).
With `COc1ccccc1/N=c1\oc2cc(O)ccc2cc1C(N)=O`, the EC50 is > 150 µM (not active) in assay [24], 1.15 µM (active) in [25], 3.1 µM (active) in assay [26] and 42 µM (active) in assay [27]. The AC50 is 17.3 µM (active) in assay [28], 27.5 µM (active) in assay [29] and 0.139 µM (active) in assay [12].
With `Oc1nc(N/N=C\c2ccc(F)cc2)nc2ccccc12`, the EC50 in assay [30] is 7.12 µM (active); in [31] it was > 99 µM (inactive).

These data come from ChEMBL document CHEMBL1201862, “PubChem BioAssay data set” (2004).
